Measurements published in patent publication US20120214862A1, “MODULATION OF FACTOR 7 EXPRESSION” (ISIS Pharmaceuticals, Inc., priority 2009, published 2012).
In the oligonucleotide strings, read from the 5' end, every base follows the letter of its sugar. An asterisk marks phosphorothioate; unmarked linkages are phosphodiester. Other units and linkages are bracketed, terminal groups are in braces. A string of capitals states the bases alone. e = 2'-O-(2-methoxyethyl) (MOE); [5mC] = 5-methylcytosine; d = 2'-deoxy (DNA)

System: human Factor 7 mRNA
Assay: Inhibition of human Factor 7 mRNA by 2-10-2 MOE shortmers in HepB3 cells, electroporation, 1,000 nM
Format: cell-based
Conditions: electroporation, 1,000 nM oligonucleotide, approximately 24 hours, relative to untreated control cells
Text: Short antisense oligonucleotides (shortmers) were designed to target a Factor 7 nucleic acid. The shortmers in Table 17 were designed as 2-10-2 MOE gapmers. The gapmers are 14 nucleotides in length, wherein the central gap segment is comprised of 10 2′-deoxynucleotides and is flanked on both sides (in the 5′ and 3′ directions) by wings comprising 2 nucleotides each. Each nucleotide in the 5′ wing segment and each nucleotide in the 3′ wing segment has a 2′-MOE modification. The internucleoside linkages throughout each gapmer are phosphorothioate (P═S) linkages. All cytidine residues throughout each gapmer are 5-methylcytidines.
Shortmers were evaluated for their ability to reduce human Factor 7 mRNA in HepB3 cells and compared with one 5-10-5 chimeric oligonucleotide from Table 16, ISIS 407939. HepB3 cells at a density of 20,000 cells per well in a 96-well plate were transfected using electroporation with 1,000 nM of antisense oligonucleotide. After a treatment period of approximately 24 hours, RNA was isolated from the cells and Factor 7 mRNA levels were measured by real-time RT-PCR, as described herein. Factor 7 mRNA levels were adjusted according to total RNA content as measured by RIBOGREEN®. Results are presented in Table 17 as percent inhibition of Factor 7 mRNA, relative to untreated control cells. ISIS 407939 is the first oligonucleotide in […] to which the shortmers were compared, and is marked by an asterisk (*).

Substance | % inhibition of human Factor 7 mRNA
435635 (antisense e[5mC]*eA*dT*dG*dA*dT*dG*dA*dA*dA*dT*d[5mC]*eT*e[5mC]) [compound 435635] | 0%
435636 (antisense eG*eA*dG*dA*d[5mC]*d[5mC]*dA*dT*dG*dA*dT*dG*eA*eA) [compound 435636] | 13%
435637 (antisense eT*eG*dA*dA*dG*d[5mC]*d[5mC]*d[5mC]*dA*dA*dG*d[5mC]*eA*eG) [compound 435637] | 11%
435638 (antisense eA*eG*d[5mC]*d[5mC]*d[5mC]*dT*dG*dA*dA*dG*d[5mC]*d[5mC]*e[5mC]*eA) [compound 435638] | 55%
435639 (antisense eT*e[5mC]*d[5mC]*dA*dG*dA*dA*d[5mC]*dA*dG*d[5mC]*dT*eT*e[5mC]) [compound 435639] | 31%
435640 (antisense eT*eG*dT*dA*dA*dG*dA*dA*dA*dT*d[5mC]*d[5mC]*eA*eG) [compound 435640] | 2%
435641 (antisense eG*eG*dT*d[5mC]*d[5mC]*d[5mC]*d[5mC]*dA*dT*d[5mC]*dA*d[5mC]*eT*eG) [compound 435641] | 51%
435642 (antisense eA*e[5mC]*dA*d[5mC]*dT*dG*dG*dT*d[5mC]*d[5mC]*d[5mC]*d[5mC]*eA*eT) [compound 435642] | 60%
435643 (antisense e[5mC]*eT*dT*dG*d[5mC]*dA*dG*dG*dA*dG*d[5mC]*d[5mC]*e[5mC]*e[5mC]) [compound 435643] | 51%
435644 (antisense eT*eG*dG*dT*d[5mC]*d[5mC]*dT*dT*dG*d[5mC]*dA*dG*eG*eA) [compound 435644] | 30%
435645 (antisense eG*eG*dA*dG*d[5mC]*dT*dG*dG*dT*d[5mC]*d[5mC]*dT*eT*eG) [compound 435645] | 44%
435646 (antisense eT*eA*dG*dG*dA*d[5mC]*dT*dG*dG*dA*dG*d[5mC]*eT*eG) [compound 435646] | 13%
435647 (antisense eA*eG*dA*dT*dA*dT*dA*dG*dG*dA*d[5mC]*dT*eG*eG) [compound 435647] | 0%
435648 (antisense eG*eA*dA*dG*d[5mC]*dA*dG*dA*dT*dA*dT*dA*eG*eG) [compound 435648] | 0%
435649 (antisense eA*eG*dG*d[5mC]*dA*dG*dA*dA*dG*d[5mC]*dA*dG*eA*eT) [compound 435649] | 21%
435650 (antisense e[5mC]*e[5mC]*dG*dG*d[5mC]*d[5mC]*d[5mC]*dT*d[5mC]*dG*dA*dA*eG*eG) [compound 435650] | 6%
435651 (antisense eA*e[5mC]*dA*dG*dT*dT*d[5mC]*d[5mC]*dG*dG*d[5mC]*d[5mC]*e[5mC]*eT) [compound 435651] | 71%
435652 (antisense e[5mC]*eT*dG*dG*dT*d[5mC]*dA*dT*d[5mC]*d[5mC]*dT*dT*eG*eT) [compound 435652] | 48%
435653 (antisense eA*eT*d[5mC]*dA*dG*d[5mC]*dT*dG*dG*dT*d[5mC]*dA*eT*e[5mC]) [compound 435653] | 32%
435654 (antisense eG*e[5mC]*d[5mC]*dG*dT*dT*d[5mC]*dT*d[5mC]*dG*dT*dT*e[5mC]*eA) [compound 435654] | 71%
435655 (antisense eA*e[5mC]*dA*dG*d[5mC]*d[5mC]*dG*d[5mC]*d[5mC]*dG*dT*dT*e[5mC]*eT) [compound 435655] | 49%
435656 (antisense eA*e[5mC]*dT*dG*d[5mC]*dT*d[5mC]*dA*d[5mC]*dA*dG*d[5mC]*e[5mC]*eG) [compound 435656] | 58%
435657 (antisense eG*e[5mC]*dA*dG*dT*dA*d[5mC]*dT*dG*d[5mC]*dT*d[5mC]*eA*e[5mC]) [compound 435657] | 69%
435658 (antisense eT*e[5mC]*dA*d[5mC]*dT*dG*d[5mC]*dA*dG*dT*dA*d[5mC]*eT*eG) [compound 435658] | 60%
435659 (antisense eT*eA*d[5mC]*d[5mC]*d[5mC]*d[5mC]*dT*d[5mC]*dG*dT*dG*dG*e[5mC]*eA) [compound 435659] | 18%
435660 (antisense e[5mC]*e[5mC]*dG*dT*d[5mC]*dT*dG*d[5mC]*d[5mC]*dA*dG*d[5mC]*eA*eG) [compound 435660] | 58%

Substance | % inhibition of human Factor 7 mRNA
435661 (antisense eG*eG*dA*d[5mC]*dA*d[5mC]*d[5mC]*d[5mC]*d[5mC]*dG*dT*d[5mC]*eT*eG) [compound 435661] | 18%
435662 (antisense eT*eG*dG*dA*dT*dA*dT*dT*d[5mC]*dA*dA*d[5mC]*eT*eG) [compound 435662] | 19%
435663 (antisense e[5mC]*e[5mC]*dA*d[5mC]*dA*dT*dG*dG*dA*dT*dA*dT*eT*e[5mC]) [compound 435663] | 50%
435664 (antisense eT*eT*dT*dT*dT*d[5mC]*d[5mC]*dA*d[5mC]*dA*dT*dG*eG*eA) [compound 435664] | 4%
435665 (antisense eA*eG*dG*dT*dA*dT*dT*dT*dT*dT*d[5mC]*d[5mC]*eA*e[5mC]) [compound 435665] | 0%
435666 (antisense eG*eG*dT*dT*dT*dG*d[5mC]*dT*dG*dG*d[5mC]*dA*eT*eT) [compound 435666] | 71%
435667 (antisense eA*eA*dT*dT*d[5mC]*dG*dG*d[5mC]*d[5mC]*dT*dT*dG*eG*eG) [compound 435667] | 16%
435668 (antisense eT*eG*d[5mC]*d[5mC]*dA*dT*dG*dG*dA*d[5mC]*dA*d[5mC]*eT*e[5mC]) [compound 435668] | 75%
435669 (antisense eG*eG*dA*d[5mC]*d[5mC]*dT*dG*d[5mC]*d[5mC]*dA*dT*dG*eG*eA) [compound 435669] | 36%
435670 (antisense e[5mC]*eA*dA*d[5mC]*dA*dG*dG*dA*d[5mC]*d[5mC]*dT*dG*e[5mC]*e[5mC]) [compound 435670] | 47%
435671 (antisense eT*e[5mC]*dA*d[5mC]*d[5mC]*dA*dA*d[5mC]*dA*dA*d[5mC]*dA*eG*eG) [compound 435671] | 28%
435672 (antisense eA*e[5mC]*d[5mC]*d[5mC]*dA*dG*dA*dT*dG*dG*dT*dG*eT*eT) [compound 435672] | 12%
435673 (antisense eA*eG*dA*d[5mC]*d[5mC]*dA*d[5mC]*d[5mC]*d[5mC]*dA*dG*dA*eT*eG) [compound 435673] | 34%
435674 (antisense eA*eA*dA*d[5mC]*dA*dG*dT*dG*dG*dG*d[5mC]*d[5mC]*eG*e[5mC]) [compound 435674] | 34%
435675 (antisense eT*eG*dT*d[5mC]*dG*dA*dA*dA*d[5mC]*dA*dG*dT*eG*eG) [compound 435675] | 24%
435676 (antisense eG*eA*dT*dT*dT*dT*dG*dT*d[5mC]*dG*dA*dA*eA*e[5mC]) [compound 435676] | 11%
435677 (antisense eG*eT*dG*d[5mC]*dT*d[5mC]*dG*d[5mC]*d[5mC]*d[5mC]*dA*dG*e[5mC]*eA) [compound 435677] | 60%
435678 (antisense eA*eG*dG*dT*d[5mC]*dG*dT*dG*d[5mC]*dT*d[5mC]*dG*e[5mC]*e[5mC]) [compound 435678] | 67%
435679 (antisense e[5mC]*eG*d[5mC]*dT*dG*dA*dG*dG*dT*d[5mC]*dG*dT*eG*e[5mC]) [compound 435679] | 62%
435680 (antisense eG*eT*dG*d[5mC]*dT*d[5mC]*dG*d[5mC]*dT*dG*dA*dG*eG*eT) [compound 435680] | 52%
435681 (antisense eA*eT*dG*dA*d[5mC]*d[5mC]*dT*dG*d[5mC]*dG*d[5mC]*d[5mC]*eA*e[5mC]) [compound 435681] | 40%
435682 (antisense eG*eG*dA*dT*dG*dA*dT*dG*dA*d[5mC]*d[5mC]*dT*eG*e[5mC]) [compound 435682] | 36%
435683 (antisense eA*eT*dG*dT*d[5mC]*dG*dT*dG*dG*dT*dT*dG*eG*eT) [compound 435683] | 3%
435684 (antisense eA*eG*d[5mC]*dA*dG*d[5mC]*dG*d[5mC]*dG*dA*dT*dG*eT*e[5mC]) [compound 435684] | 56%
435685 (antisense eA*eG*dG*dA*d[5mC]*d[5mC]*dA*d[5mC]*dG*dG*dG*d[5mC]*eT*eG) [compound 435685] | 40%
